From US20220305178A1, “CANCER TREATMENT BY IN VITRO AMINO ACID DEPRIVATION” (YUANHENG BIOMEDICAL CO., LTD., priority 2021, published 2022)

Legend:
[1] = Modified hemodialysis of simulated blood with Asparaginase in the dialysate, amino acids by UPLC; assay type: biochemical, pig; conditions: for concentration of Asn of the simulated blood / concentration of Arg of the simulated blood / concentration of Gln of the simulated blood / concentration of Met of the simulated blood / concentration of Ser of the simulated blood: Experimental group 1, Asparaginase 1 K.U./ml in dialysate; for concentration of Arg of the simulated blood / concentration of Gln of the simulated blood / concentration of Met of the simulated blood / concentration of Ser of the simulated blood: non-target amino acid
Method: 900 ml of pig's blood and 100 ml of Gibco Roswell Park Memorial Institute (RPMI) 1640 Medium (RPMI 1640 Medium) were mixed to obtain a diluted pig's blood. The diluted pig's blood was further added with 1.8 mg/ml EDTA-K^2+, 0.05% sodium azide; and 132 μl of Heparin with the concentration of 5000 U/ml to obtain a simulated blood, wherein the concentration of EDTA-K^2+ of the simulated blood was […].
The dialysis machine is Toray TR-321. The dialysate for extracorporeal circulation was triple the amount of the simulated blood and was 3000 ml, and the flow rate of dialysate was 500 ml/min. Before the simulated blood entered the dialysis machine, 1X PBS was used to clean the circulation pipeline of the dialysis machine, to achieve the required balance of the artificial kidney (Polyflux 17L), and to get rid of all bubbles in the artificial kidney, and the circulation speed was 250 ml/min. Besides, the effective membrane area of the artificial kidney is 1.7 m^2.
The dialysate consisted of Buffer A (hemodialysis concentrate No. 16, purchased from Taiwan Biotech Co., LTD), Buffer B (Sodium Bicarbonate Concentrate 8.4%, purchased from Fressenius Medical Care Ag, 61348 Bad Homburg, Germany) and R.O. water, wherein the volume ratio of Buffer A, Buffer B and R.O. water is 1:1.225:32.775.
The target amino acid is Asparagine (Asn), and the rest are non-target amino acids. The 3000 ml dialysate was added with 3 ml of Asparaginase with the concentration of 1000 K.U./ml (LEUNASE®) in the Experimental group 1, so the concentration of Asparaginase in the dialysate is 1 K.U./ml. No Asparaginase was added in the Control group 1.
The conductivity of the dialysate was adjusted to about 14 mS/cm. The dialysis temperature was set to be 37° C. When the pressure of the circulation pipeline, the temperature and the conductivity of the dialysate reached the desirable value and were stable, a green light signaled to indicate that hemodialysis was ready. The simulated blood was pumped into the circulation pipeline and entered the artificial kidney. Besides, the simulated blood was further added with Heparin with the concentration of 5000 U/ml at the flow rate of 4.4 ml/hour before the simulated blood entered the artificial kidney. The concentrations of amino acids in the simulated blood before and after dialysis were detected by ultra performance liquid chromatography (UPLC) and the results were shown in Table 1 and Table 2.

[2] = Modified peritoneal dialysis of peritoneal fluid (RPMI 1640 diluent) with Asparaginase in the dialysate (Example 3); assay type: biochemical
Method: (§1) RPMI 1640 Medium was ten times diluted to obtain 1 L of RPMI 1640 diluent with Dianeal PD-2 (Peritoneal Dialysis Solution) and to serve as a peritoneal fluid for the control group 2. 1 L and 2 L of the same RPMI 1640 diluent was prepared for the Experimental group 2 and Experimental group 3, respectively.
(§2) The flow rate or circulation speed of the dialysate was 250 ml/min. Before the peritoneal fluid (RPMI 1640 diluent) entered the dialysis machine, RPMI 1640 diluent was also used to clean the circulation pipeline of the dialysis machine, to achieve the required equilibrium of the artificial kidney, and to get rid of all bubbles in the artificial kidney. Besides, the artificial kidneys of the control group 2 and the experimental group 2 were NV-15U with the effective membrane area of 1.5 m^2; and the artificial kidney of the experimental group 3 was NV-21U with the effective membrane area of 2.1 m^2.
(§3) The dialysate is DIANEAL PD-2 Peritoneal Dialysis Solution with 1.5% Dextrose (Baxter). The target amino acid is Asparagine (Asn), and the concentration of Asparaginase in the dialysate is 1 K.U./ml in the Experimental groups 2 & 3. No Asparaginase was added in the control group 2.
(§4) The dialysis temperature was set to be 37° C. The peritoneal fluid (RPMI 1640 diluent) was first pumped into slot A for temporary storage and then entered the artificial kidney. After peritoneal fluid (RPMI 1640 diluent) left the artificial kidney, peritoneal fluid (RPMI 1640 diluent) further entered slot B for temporary storage, and then left the dialysis machine, e.g. the peritoneal fluid (RPMI 1640 diluent) was pumped back to the peritoneal cavity of the patient. The concentrations of amino acids in the peritoneal fluid before and after dialysis were studied by using Amino Acid Analysis Systems (Waters UPLC® Amino Acid Analysis (AAA) Solution) and the result was shown in Table 3 to Table 5.

[3] = Modified peritoneal dialysis with artificial kidneys of different effective membrane areas (Example 4); assay type: biochemical; conditions: for Arg (%) of the peritoneal fluid / Arg (μM) of the peritoneal fluid: non-target amino acid
Method: as §1, §2, §3, §4
Example 4 was carried out with the method the same as Example 3 except that the artificial kidneys with different effective membrane areas were adopted. The concentrations of amino acids in the peritoneal fluid before and after dialysis were studied and the result was shown in Table 6.

[4] = dialyzer BG-1.6U (1.6 m^2), dialysis time 0 min
[5] = dialyzer BG-1.6U (1.6 m^2), dialysis time 3 min
[6] = dialyzer BG-1.6U (1.6 m^2), dialysis time 5 min
[7] = dialyzer BG-1.6U (1.6 m^2), dialysis time 10 min
[8] = dialyzer BG-1.6U (1.6 m^2), dialysis time 20 min
[9] = dialyzer BG-1.8U (1.8 m^2), dialysis time 0 min
[10] = dialyzer BG-1.8U (1.8 m^2), dialysis time 3 min
[11] = dialyzer BG-1.8U (1.8 m^2), dialysis time 5 min
[12] = dialyzer BG-1.8U (1.8 m^2), dialysis time 10 min
[13] = dialyzer BG-1.8U (1.8 m^2), dialysis time 20 min
[14] = dialyzer polyflux-140H (1.4 m^2), dialysis time 0 min
[15] = dialyzer polyflux-140H (1.4 m^2), dialysis time 3 min
[16] = dialyzer polyflux-140H (1.4 m^2), dialysis time 5 min
[17] = dialyzer polyflux-140H (1.4 m^2), dialysis time 10 min
[18] = dialyzer polyflux-140H (1.4 m^2), dialysis time 20 min

## Asparaginase
[1]; Polyflux 17L 1.7 m^2, dialysis time 0 min
  concentration of Asn of the simulated blood: 41.8 µM
[1]; Polyflux 17L 1.7 m^2, dialysis time 3 min
  concentration of Asn of the simulated blood: 32.3 µM
[1]; Polyflux 17L 1.7 m^2, dialysis time 5 min
  concentration of Asn of the simulated blood: 24.2 µM
[1]; dialysis time 0 min
  concentration of Arg of the simulated blood: 212.4 µM
  concentration of Gln of the simulated blood: 381.8 µM
  concentration of Met of the simulated blood: 38.5 µM
  concentration of Ser of the simulated blood: 159.8 µM
[1]; dialysis time 3 min
  concentration of Arg of the simulated blood: 83.0 µM
  concentration of Gln of the simulated blood: 147.5 µM
  concentration of Met of the simulated blood: 16.0 µM
  concentration of Ser of the simulated blood: 67.7 µM
[1]; dialysis time 5 min
  concentration of Arg of the simulated blood: 74.6 µM
  concentration of Gln of the simulated blood: 131.5 µM
  concentration of Met of the simulated blood: 14.4 µM
  concentration of Ser of the simulated blood: 63.2 µM
[1]; dialysis time 10 min
  concentration of Arg of the simulated blood: 16.9 µM
  concentration of Gln of the simulated blood: 24.2 µM
  concentration of Met of the simulated blood: 3.7 µM
  concentration of Ser of the simulated blood: 17.5 µM
[1]; dialysis time 20 min
  concentration of Arg of the simulated blood: 14.7 µM
  concentration of Gln of the simulated blood: 18.2 µM
  concentration of Met of the simulated blood: 3.8 µM
  concentration of Ser of the simulated blood: 20.0 µM
[1]; dialysis time 30 min
  concentration of Arg of the simulated blood: 14.3 µM
  concentration of Gln of the simulated blood: 18.3 µM
  concentration of Met of the simulated blood: 3.5 µM
  concentration of Ser of the simulated blood: 17.8 µM
[1]; Experimental group 1, simulated blood, LOD of Asparagine 5 μM
  dialysis time within which Asparagine (Asn) is undetectable: ≤ 10 min
[2]; experimental group 2, Asparaginase 1 K.U./ml in dialysate, NV-15U 1.5 m^2, dialysis time 0 min
  concentration of Asn of the peritoneal fluid: 27.284 µM
[2]; experimental group 2, Asparaginase 1 K.U./ml in dialysate, NV-15U 1.5 m^2, dialysis time 3 min
  concentration of Asn of the peritoneal fluid: 23.254 µM
[2]; experimental group 2, Asparaginase 1 K.U./ml in dialysate, NV-15U 1.5 m^2, dialysis time 5 min
  concentration of Asn of the peritoneal fluid: 9.088 µM
[2]; experimental group 2, Asparaginase 1 K.U./ml in dialysate, NV-15U 1.5 m^2, non-target amino acid, dialysis time 0 min
  concentration of Arg of the peritoneal fluid: 102.6 µM
[2]; experimental group 2, Asparaginase 1 K.U./ml in dialysate, NV-15U 1.5 m^2, non-target amino acid, dialysis time 3 min
  concentration of Arg of the peritoneal fluid: 90.0 µM
[2]; experimental group 2, Asparaginase 1 K.U./ml in dialysate, NV-15U 1.5 m^2, non-target amino acid, dialysis time 5 min
  concentration of Arg of the peritoneal fluid: 70.5 µM
[2]; experimental group 2, NV-15U 1.5 m^2
  dialysis time within which Arginine (Arg) is lower to 50% of the original concentration: ≤ 10 min
[2]; experimental group 2, within 5 mins of dialysis
  concentration of Asparagine (Asn) relative to original: less than 50%
[2]; experimental group 3, Asparaginase 1 K.U./ml in dialysate, NV-21U 2.1 m^2, dialysis time 0 min
  concentration of Asn of the peritoneal fluid: 30.674 µM
[2]; experimental group 3, Asparaginase 1 K.U./ml in dialysate, NV-21U 2.1 m^2, non-target amino acid, dialysis time 0 min
  concentration of Arg of the peritoneal fluid: 83.86 µM
[2]; experimental group 3, Asparaginase 1 K.U./ml in dialysate, NV-21U 2.1 m^2, non-target amino acid, dialysis time 3 min
  concentration of Arg of the peritoneal fluid: 70.12 µM
[2]; experimental group 3, Asparaginase 1 K.U./ml in dialysate, NV-21U 2.1 m^2, non-target amino acid, dialysis time 5 min
  concentration of Arg of the peritoneal fluid: 37.31 µM
[2]; experimental group 3, Asparaginase 1 K.U./ml in dialysate, NV-21U 2.1 m^2, non-target amino acid, dialysis time 10 min
  concentration of Arg of the peritoneal fluid: 19.99 µM
[2]; experimental group 3, NV-21U 2.1 m^2
  dialysis time within which Arginine (Arg) is lower to 50% of the original concentration: ≤ 5 min
[2]; experimental group 3, NV-21U 2.1 m^2, peritoneal fluid, LOD of Asparagine 5 μM
  dialysis time within which Asparagine (Asn) is undetectable: ≤ 3 min
[3]; Example 4, artificial kidneys 1.4 to 1.8 m^2
  concentration of non-target amino acid maintained: about 50%
[3]; [4]
  Asn (%) of the peritoneal fluid: 100%
  Asn (μM) of the peritoneal fluid: 45.5 µM
  Arg (%) of the peritoneal fluid: 100%
  Arg (μM) of the peritoneal fluid: 95.3 µM
[3]; [5]
  Asn (%) of the peritoneal fluid: 73.90%
  Asn (μM) of the peritoneal fluid: 33.6 µM
  Arg (%) of the peritoneal fluid: 86.3%
  Arg (μM) of the peritoneal fluid: 82.2 µM
[3]; [6]
  Arg (%) of the peritoneal fluid: 74.8%
  Arg (μM) of the peritoneal fluid: 71.3 µM
[3]; [7]
  Arg (%) of the peritoneal fluid: 65.8%
  Arg (μM) of the peritoneal fluid: 62.7 µM
[3]; [8]
  Arg (%) of the peritoneal fluid: 49.7%
  Arg (μM) of the peritoneal fluid: 47.4 µM
[3]; [9]
  Asn (%) of the peritoneal fluid: 100%
  Asn (μM) of the peritoneal fluid: 36.7 µM
  Arg (%) of the peritoneal fluid: 100%
  Arg (μM) of the peritoneal fluid: 89.0 µM
[3]; [10]
  Arg (%) of the peritoneal fluid: 75.1%
  Arg (μM) of the peritoneal fluid: 66.8 µM
[3]; [11]
  Arg (%) of the peritoneal fluid: 76.5%
  Arg (μM) of the peritoneal fluid: 68.0 µM
[3]; [12]
  Arg (%) of the peritoneal fluid: 61.5%
  Arg (μM) of the peritoneal fluid: 54.7 µM
[3]; [13]
  Arg (%) of the peritoneal fluid: 61.2%
  Arg (μM) of the peritoneal fluid: 54.4 µM
[3]; [14]
  Asn (%) of the peritoneal fluid: 100%
  Asn (μM) of the peritoneal fluid: 36.9 µM
  Arg (%) of the peritoneal fluid: 100%
  Arg (μM) of the peritoneal fluid: 93.7 µM
[3]; [15]
  Asn (%) of the peritoneal fluid: 85.8%
  Asn (μM) of the peritoneal fluid: 31.6 µM
  Arg (%) of the peritoneal fluid: 93.6%
  Arg (μM) of the peritoneal fluid: 87.6 µM
[3]; [16]
  Asn (%) of the peritoneal fluid: 62.3%
  Asn (μM) of the peritoneal fluid: 23.0 µM
  Arg (%) of the peritoneal fluid: 84.8%
  Arg (μM) of the peritoneal fluid: 79.4 µM
[3]; [17]
  Arg (%) of the peritoneal fluid: 71.4%
  Arg (μM) of the peritoneal fluid: 66.9 µM
[3]; [18]
  Arg (%) of the peritoneal fluid: 57.9%
  Arg (μM) of the peritoneal fluid: 54.2 µM
